# Measurements published in ChEMBL document CHEMBL5325447, “Synthesis and SAR study of novel diimide skeleton compounds with the anti-inflammatory activities in vitro and in vivo” (Bioorg Med Chem, 2023).
# pIC50: −log10 of the molar value. Active and inactive are the calls of the source. The rule behind the calls is not given here.
# Key:
# RAW264.7 [1] = assay: Antiinflammatory activity against mouse RAW264.7 cells assessed as inhibition of LPS-induced IL-6 production at 10 uM pretreated with compound for 0.5 hrs followed by incubation with LPS for 24 hrs by ELISA; type: functional; settings: time 24.5 hrs
# [2] = Cytotoxicity against mouse RAW264.7 cells assessed as cell viability at 10 uM incubated for 24 hrs by MTT assay relative to control; type: toxicity, cell-based; settings: read-out: Activity
# RAW264.7 [3] = assay: Antiinflammatory activity against mouse RAW264.7 cells assessed as inhibition of LPS-induced IL-6 production pretreated with compound for 0.5 hrs followed by incubation with LPS for 24 hrs by ELISA; type: functional, cell-based
# Mus musculus [4] = assay: Antiinflammatory activity against LPS-induced acute lung injury C57BL/6J mouse model assessed as decrease in total protein concentration in BALF at 20 mg/kg, ig administered every 12 hrs for 3 times and 30 mins later injected with LPS and measured after 5 hrs; type: functional, organism-based; settings: time 41.5 hrs
# Mus musculus [5] = assay: (§1) Antiinflammatory activity against LPS-induced acute lung injury C57BL/6J mouse model assessed as decrease in neutrophil number in BALF at 20 mg/kg, ig administered every 12 hrs for 3 times and 30 mins later injected with LPS and measured after 5 hrs by Wrigth-Giemsa staining; type: functional, organism-based; settings: time 41.5 hrs
# Mus musculus [6] = assay: Antiinflammatory activity against LPS-induced acute lung injury C57BL/6J mouse model assessed as decrease in LPS-induced IL-6 production in BALF at 20 mg/kg, ig administered every 12 hrs for 3 times and 30 mins later injected with LPS and measured after 5 hrs by ELISA; type: functional, organism-based; settings: time 41.5 hrs
# Mus musculus [7] = assay: Antiinflammatory activity against LPS-induced acute lung injury C57BL/6J mouse model assessed as decrease in ratio of lung wet to dry weight at 20 mg/kg, ig administered every 12 hrs for 3 times and 30 mins later injected with LPS and measured after 5 hrs; type: functional, organism-based; settings: time 41.5 hrs
# Mus musculus [8] = assay: Antiinflammatory activity against LPS-induced acute lung injury C57BL/6J mouse model assessed as decrease in disruption of lung tissue structure and alveolar wall thickening at 20 mg/kg, ig administered every 12 hrs for 3 times and 30 mins later injected with LPS and measured after 5 hrs; type: functional, organism-based; settings: time 41.5 hrs
# Mus musculus [9] = assay: Antiinflammatory activity against LPS-induced acute lung injury C57BL/6J mouse model assessed as decrease in LPS-induced TNF-alpha production in BALF at 20 mg/kg, ig administered every 12 hrs for 3 times and 30 mins later injected with LPS and measured after 5 hrs by ELISA; type: functional, organism-based; settings: time 41.5 hrs
# Mus musculus [10] = assay: Antiinflammatory activity against LPS-induced acute lung injury C57BL/6J mouse model assessed as decrease in LPS-induced IL-6 production in serum at 20 mg/kg, ig administered every 12 hrs for 3 times and 30 mins later injected with LPS and measured after 5 hrs by ELISA; type: functional, organism-based; settings: time 41.5 hrs
# Mus musculus [11] = assay: Antiinflammatory activity against LPS-induced acute lung injury C57BL/6J mouse model assessed as decrease in LPS-induced TNF-alpha production in serum at 20 mg/kg, ig administered every 12 hrs for 3 times and 30 mins later injected with LPS and measured after 5 hrs by ELISA; type: functional, organism-based; settings: time 41.5 hrs
# Mus musculus [12] = assay: as §1, with “LPS-induced F4/80 expression” for “neutrophil number”, “lungs” for “BALF”, “immunohistochemical” for “Wrigth-Giemsa”, “staining based analysis” for “staining”; type: functional, organism-based; settings: time 41.5 hrs
# Mus musculus [13] = assay: Antiinflammatory activity against LPS-induced hyperemia C57BL/6J mouse model assessed as decrease in LPS-induced death rate at 20 mg/kg, po administered 1 hr prior to LPS stimulation and measured for 1 week; type: functional, organism-based; settings: time 1.0 weeks
# Mus musculus [14] = assay: Antiinflammatory activity against LPS-induced hyperemia C57BL/6J mouse model assessed as decrease in LPS-induced weight loss at 20 mg/kg, po administered 1 hr prior to LPS stimulation and measured for 1 week; type: functional, organism-based; settings: time 1.0 weeks
# Mus musculus [15] = assay: Antiinflammatory activity against LPS-induced hyperemia C57BL/6J mouse model assessed as decrease in LPS-induced morphological changes in spleen at 20 mg/kg, po administered 1 hr prior to LPS stimulation by Hematoxylin-Eosin staining based analysis; type: functional, organism-based
# RAW264.7 [16] = assay: Antiinflammatory activity against mouse RAW264.7 cells assessed as inhibition of LPS-induced TNF-alpha production pretreated with compound for 0.5 hrs followed by incubation with LPS for 24 hrs by ELISA; type: functional, cell-based
Compound,inhibition at 10 µM (RAW264.7 [1]),"viability at 24 h, 10 µM [2]",other results
O=C(CCc1ccccc1)NC(=O)c1cccs1,,,inhibition (RAW264.7 [1]): Active
O=C(NC(=O)c1ccco1)c1ccccc1,70.2%,106%,
O=C(/C=C/c1ccccc1)NC(=O)c1cccs1,94.8%,110%,pIC50 (RAW264.7 [3]): 5.80; inhibition (RAW264.7 [3]; time 24.5 hrs): Dose-Dependent Effect; Activity (Mus musculus [4]): Active; Activity (Mus musculus [5]): Active; Activity (Mus musculus [6]): Active; Activity (Mus musculus [7]): Active; Activity (Mus musculus [8]): Active; Activity (Mus musculus [9]): Active; Activity (Mus musculus [10]): Active; Activity (Mus musculus [11]): Active; Activity (Mus musculus [12]): Active; Activity (Mus musculus [13]): Active; Activity (Mus musculus [14]): Active; Activity (Mus musculus [15]): Active; pIC50 (RAW264.7 [16]): 4.82; inhibition (RAW264.7 [16]; time 24.5 hrs): Dose-Dependent Effect
O=C(/C=C/c1ccccc1)NC(=O)C1CCNC1 (configuration not stated),74%,130%,
O=C(/C=C/c1ccccc1)NC(=O)/C=C/c1ccccc1,82.5%,20.2%,
CC(C)(C)OC(=O)N1CCC(C(=O)NC(=O)c2ccccc2)C1 (configuration not stated),60.6%,143%,
COc1ccc2cc(C(C)C(=O)NC(=O)/C=C/c3ccccc3)ccc2c1 (configuration not stated),79.1%,78.5%,
COc1ccc2cc(C(C)C(=O)NC(=O)c3ccccc3)ccc2c1 (configuration not stated),71.2%,89.7%,
O=C(CCc1ccccc1)NCc1cccs1,,,inhibition (RAW264.7 [1]): Active
O=C(NC(=O)c1cc2ccccc2[nH]1)c1ccccc1,77.2%,90.5%,
O=C(/C=C/c1ccccc1)NC(=O)c1ccc2ccccc2n1,83.3%,93.2%,
c1ccc(CCCNCc2cccs2)cc1,,,inhibition (RAW264.7 [1]): Active
O=C(/C=C/c1ccccc1)NC(=O)c1cc2ccccc2[nH]1,32%,32.4%,
O=C(/C=C/c1ccccc1)NC(=O)c1ccco1,88.6%,97.3%,
O=C(NC(=O)c1cccs1)c1ccccc1,62.3%,99.3%,
O=C(NCCCc1ccccc1)c1cccs1,,,inhibition (RAW264.7 [1]): Active
O=C(NC(=O)c1ccc2ccccc2n1)c1ccccc1,74%,88.2%,
C[C@@H]1C[C@H]2[C@@H]3CCC4=CC(=O)C=C[C@]4(C)[C@@]3(F)[C@@H](O)C[C@]2(C)[C@@]1(O)C(=O)CO,,,Activity (Mus musculus [7]): Active; Activity (Mus musculus [8]): Active; Activity (Mus musculus [12]): Active
O=C(NC(=O)C1CCNC1)c1ccccc1 (configuration not stated),74%,115%,
COc1ccc2cc([C@H](C)C(=O)O)ccc2c1 [NAPROXEN],52.2%,112%,
O=C(/C=C/c1ccccc1)NCc1cccs1,,,inhibition (RAW264.7 [1]): Active
COc1ccc2cc(C(C)C(=O)NC(=O)C(C)c3ccc(CC(C)C)cc3)ccc2c1 (configuration not stated),55.7%,117%,
COc1cc(/C=C/C(=O)CC(=O)/C=C/c2ccc(O)c(OC)c2)ccc1O [CURCUMIN],87%,120%,
CC(C)Cc1ccc(C(C)C(=O)NC(=O)c2ccccc2)cc1 (configuration not stated),71.1%,91%,
CC(C)Cc1ccc(C(C)C(=O)O)cc1 (configuration not stated) [IBUPROFEN],61%,132%,
O=C(/C=C/c1ccccc1)NC(=O)c1ccccc1,90.7%,72.8%,
O=C(NC(=O)c1ccccc1)c1ccccc1,66.7%,109%,
O=C(NC(=O)c1cccnc1)c1ccccc1,62%,103%,
CC(C)Cc1ccc(C(C)C(=O)NC(=O)/C=C/c2ccccc2)cc1 (configuration not stated),90.1%,94.4%,
CC(C)(C)OC(=O)N1CCC(C(=O)NC(=O)/C=C/c2ccccc2)C1 (configuration not stated),77.5%,135%,
